Assays:
[1] = system: ALS (acetolactate syntase); assay: ALS enzyme assay (Test 1); assay type: biochemical, pea; conditions: 1,000 ppm (0.5 mg/0.5 ml)
Description: To determine the selectivity in enzyme level between crops and weeds, and ALS enzyme assay was conducted using pea as a representative of broadleaf crops and barnyardgrass as a representative of narrowleaf weeds.
After seeds of pea and barnyardgrass were allowed to germinate at 25° C. for 8-14 days in a dark place, partially-purified suspensions (Suspensions A) of acetolactate syntase were separately obtained from seedlings in accordance with the method described in the literature, Plant Physiology, 75, 827-831.
In a test tube, 0.5 mg of one of test compounds was weighed, followed by the addition of 0.15 ml of a 20 mM K2 HPO4 solution and 0.25 ml of a reaction substrate medium which consisted of 40 mM of K2 HPO4, 40 mM of sodium pyruvate, 1 mM of TPP, 1 mM of MgCl2 and 20 μM of FAD so that 0.4 ml of a reaction solution (Solution B) was prepared. Added to 0.4 ml of Solution B was 0.1 ml of suspension A. After the resultant mixture was shaken for 1 hour in a thermostat water bath controlled at 30° C., 50 μl of 6N sulfuric acid were added to terminate the reaction.
Next, the reaction-terminated liquid mixture was transferred into a thermostat water bath controlled at 60° C. and was heated for 15 minutes. Thereafter, 0.5 ml of a 0.5% creatine solution and 0.5 ml of a 5% alkaline α-naphthol solution were added, and the resultant mixture was maintained at 60° C. for 15 minutes. As a result, the test solution developed a pink-red color. After the above operation, the absorbance of the test solution at 525 nm was measured by a spectrophotometer (Absorbance 1 of Test Compound).
On the other hand, the absorbance (Absorbance 2 of Blank) of a solution obtained by subjecting a portion of Solution B, said portion being free of the test compound, to the above operation and the absorbance (Absorbance 3 of sulfuric acid terminated) of another solution obtained by subjecting another portion of Solution B, said portion containing 50 μl of 6N sulfuric acid as a test compound, were measured at the same time. Based on the values of the respective measurements, the enzyme assay at 1,000 ppm (0.5 mg/0.5 ml) of each compound was determined. [formula]

johnsongrass = assay: Upland soil application test (Test 2); assay type: in vivo; conditions: 30 g ai/a, soil spray before emergence, 30 days later
Description: (§1) Resin-made 1/2500-are pots were filled with the soil of an upland field. After they were fertilized, soybean, peanut and cotton were seeded and 2-3 cm soil covering was applied. Seeds of redroot pigweed, common lambsquarters, barnyardgrass, green foxtail, large crabgrass, foxtail meadow and johnsongrass had been uniformly mixed with the soil. They were allowed to germinate in a green house. One day later (before emergence of weeds), a wettable powder prepared from a predetermined amount of each test compound in a similar manner to the method described in Formulation Example 1 was diluted with water and then sprayed evenly at an application rate equal to 10 l per are onto the surface of the soil by means of a pressure-operated ULV (ultra low volume) sprayer. Influence to the crops and weeds were observed 30 days later. The results are shown in Table 3, in which the degree of damages of each test plant and the degree of injury to each crop were determined by comparing the air-dried weights of the test plant and crop with those of the corresponding plant and crop in untreated pots and are shown in accordance with the following standard: […]

green foxtail = assay: Upland soil application test (Test 2); assay type: in vivo; conditions: 30 g ai/a, soil spray before emergence, 30 days later
Description: as §1

large crabgrass = assay: Upland soil application test (Test 2); assay type: in vivo; conditions: 30 g ai/a, soil spray before emergence, 30 days later
Description: as §1

common lambsquarters = assay: Upland soil application test (Test 2); assay type: in vivo; conditions: 30 g ai/a, soil spray before emergence, 30 days later
Description: as §1

foxtail meadow = assay: Upland soil application test (Test 2); assay type: in vivo; conditions: 30 g ai/a, soil spray before emergence, 30 days later
Description: as §1

redroot pigweed = assay: Upland soil application test (Test 2); assay type: in vivo; conditions: 30 g ai/a, soil spray before emergence, 30 days later
Description: as §1

barnyardgrass [2] = assay: Upland soil application test (Test 2); assay type: in vivo; conditions: 30 g ai/a, soil spray before emergence, 30 days later
Description: as §1

rice = assay: Treatment of soil under submerged condition, pre-emergence (Test 4), injury; assay type: in vivo; conditions: 30 g ai/a granule, 30 days later
Description: (§2) 1/5000-are Wagner pots were filled with soil. Seeds or tubers of barnyardgrass, Monochoria vaginalis, bulrush, Sagittaria pygmaea, Cyperus seroylnus and Eleocharis kuroguwai were seeded or planted under submerged condition. Two pairs of rice seedlings (2-3 leaf stage), which had been reared in advance, were transplanted to each pot and were allowed to germinate in a green house. Each pair consisted of two rice seedlings. One day later (before emergence of weeds), each pot was treated with a granule which had been prepared by processing a predetermined amount of the test composition in accordance with a similar method to the method described in Formulation Example 9. The state of emergence of weeds and the state of injury of rice were observed 30 days later.
(§3) In the table, the degrees of damages of the test plants and the degrees of injury of rice are shown in a similar manner to Example 2.

bulrush [3] = assay: Treatment of soil under submerged condition, pre-emergence (Test 4); assay type: in vivo; conditions: 30 g ai/a granule, 30 days later
Description: as §2, §3

Sagittaria pygmaea [4] = assay: as above; assay type: in vivo; conditions: 30 g ai/a granule, 30 days later
Description: as §2, §3

barnyardgrass [5] = assay: as above; assay type: in vivo; conditions: 30 g ai/a granule, 30 days later
Description: as §2, §3

cotton = assay: Upland soil application test (Test 2), crop injury; assay type: in vivo; conditions: 30 g ai/a, soil spray before emergence, 30 days later
Description: as §1

soybean = assay: Upland soil application test (Test 2), crop injury; assay type: in vivo; conditions: 30 g ai/a, soil spray before emergence, 30 days later
Description: as §1

peanut = assay: Upland soil application test (Test 2), crop injury; assay type: in vivo; conditions: 30 g ai/a, soil spray before emergence, 30 days later
Description: as §1

bulrush [6] = assay: Treatment of soil under submerged condition, post-emergence (Test 5); assay type: in vivo; conditions: 30 g ai/a granule, 30 days later
Description: as §2, with “serroylnus” for “seroylnus”, “grow” for “germinate”, “When the barnyardgrass grew to two-leaf stage,” for “One day later (before emergence of weeds),”
(§4) In the table, the degrees of damages of the test plants and the degrees of injury of the rice are shown in a similar manner to Example 2.

Sagittaria pygmaea [7] = assay: as above; assay type: in vivo; conditions: 30 g ai/a granule, 30 days later
Description: as §2, with “serroylnus” for “seroylnus”, “grow” for “germinate”, “When the barnyardgrass grew to two-leaf stage,” for “One day later (before emergence of weeds),”
as §4

barnyardgrass [8] = assay: as above; assay type: in vivo; conditions: 30 g ai/a granule, post-emergence (barnyardgrass two-leaf stage), 30 days later
Description: as §2, with “serroylnus” for “seroylnus”, “grow” for “germinate”, “When the barnyardgrass grew to two-leaf stage,” for “One day later (before emergence of weeds),”
as §4

Row | SMILES | Inhibitory activity (%) Pea [1] | Herbicidal effects Johnsongrass (johnsongrass) | Herbicidal effects Green foxtail (green foxtail) | Herbicidal effects Large crabgrass (large crabgrass) | Herbicidal effects Common lambsquarters (common lambsquarters) | Herbicidal effects Foxtail meadow (foxtail meadow) | Herbicidal effects Redroot pigweed (redroot pigweed) | Herbicidal effects Barnyardgrass (barnyardgrass [2]) | Injury Rice (rice) | Herbicidal effects Bulrush (bulrush [3]) | Herbicidal effects Sagittaria Pygmaea (Sagittaria pygmaea [4]) | Herbicidal effects Barnyardgrass (barnyardgrass [5]) | Injury Cotton (cotton) | Injury Soybean (soybean) | Injury Peanut (peanut) | Herbicidal effects Bulrush (bulrush [6]) | Herbicidal effects Sagittaria Pygmaea (Sagittaria pygmaea [7]) | Herbicidal effects Barnyardgrass (barnyardgrass [8])
1 | COc1cc(OC)nc(Oc2ccccc2C=NOCC=CCl)n1 [compound 11] | 0% | 5 (0-5 (Death)) | 5 (0-5 (Death)) | 5 (0-5 (Death)) | 4 (6-10 (Severe damages)) | 5 (0-5 (Death)) | 5 (0-5 (Death)) | 5 (0-5 (Death)) | 1 (71-90 (Slight damages)) | 3 (11-40 (Medium damages)) | 4 (6-10 (Severe damages)) | 4 (6-10 (Severe damages)) | 0 (91-100 (No damages)) | 0 (91-100 (No damages)) | 0 (91-100 (No damages)) | 4 (6-10 (Severe damages)) | 4 (6-10 (Severe damages)) | 5 (0-5 (Death))
2 | COc1cc(OC)nc(Oc2ccccc2C=NO)n1 [Compound No. 24, 2-(4,6-dimethoxy-2-pyrimidinyloxy)-benzaloxime] | 0% | 5 (0-5 (Death)) | 5 (0-5 (Death)) | 4 (6-10 (Severe damages)) | 4 (6-10 (Severe damages)) | 5 (0-5 (Death)) | 4 (6-10 (Severe damages)) | 4 (6-10 (Severe damages)) | 1 (71-90 (Slight damages)) | 2 (41-70 (Small damages)) | 4 (6-10 (Severe damages)) | 3 (11-40 (Medium damages)) | 0 (91-100 (No damages)) | 0 (91-100 (No damages)) | 0 (91-100 (No damages)) | 5 (0-5 (Death)) | 4 (6-10 (Severe damages)) | 5 (0-5 (Death))
3 | COc1cc(OC)nc(Oc2ccccc2C=NOC(C)C)n1 [compound 6] | 0% | 5 (0-5 (Death)) | 5 (0-5 (Death)) | 4 (6-10 (Severe damages)) | 4 (6-10 (Severe damages)) | 5 (0-5 (Death)) | 3 (11-40 (Medium damages)) | 4 (6-10 (Severe damages)) | 0 (91-100 (No damages)) | 4 (6-10 (Severe damages)) | 4 (6-10 (Severe damages)) | 4 (6-10 (Severe damages)) | 0 (91-100 (No damages)) | 0 (91-100 (No damages)) | 0 (91-100 (No damages)) | 4 (6-10 (Severe damages)) | 3 (11-40 (Medium damages)) | 4 (6-10 (Severe damages))
4 | COc1cc(OC)nc(Oc2ccccc2C=NOCc2ccc(Cl)cc2Cl)n1 [Compound No. 17] | 0% | 3 (11-40 (Medium damages)) | 3 (11-40 (Medium damages)) | 3 (11-40 (Medium damages)) | 4 (6-10 (Severe damages)) | 3 (11-40 (Medium damages)) | 3 (11-40 (Medium damages)) | 3 (11-40 (Medium damages)) | 0 (91-100 (No damages)) | 4 (6-10 (Severe damages)) | 3 (11-40 (Medium damages)) | 4 (6-10 (Severe damages)) | 0 (91-100 (No damages)) | 0 (91-100 (No damages)) | 0 (91-100 (No damages)) | 4 (6-10 (Severe damages)) | 3 (11-40 (Medium damages)) | 3 (11-40 (Medium damages))

Further lines, with some results ahead:

Row | Inhibitory activity (%) Pea [1] | SMILES | Herbicidal effects Johnsongrass (johnsongrass) | Herbicidal effects Green foxtail (green foxtail) | Herbicidal effects Large crabgrass (large crabgrass) | Herbicidal effects Common lambsquarters (common lambsquarters) | Herbicidal effects Foxtail meadow (foxtail meadow) | Herbicidal effects Redroot pigweed (redroot pigweed) | Herbicidal effects Barnyardgrass (barnyardgrass [2]) | Injury Rice (rice) | Herbicidal effects Bulrush (bulrush [3]) | Herbicidal effects Sagittaria Pygmaea (Sagittaria pygmaea [4]) | Herbicidal effects Barnyardgrass (barnyardgrass [5]) | Injury Cotton (cotton) | Injury Soybean (soybean) | Injury Peanut (peanut) | Herbicidal effects Bulrush (bulrush [6]) | Herbicidal effects Sagittaria Pygmaea (Sagittaria pygmaea [7]) | Herbicidal effects Barnyardgrass (barnyardgrass [8])
5 | 12% | COc1cc(OC)nc(Oc2ccccc2C=NOCC=Cc2ccccc2Cl)n1 [Compound No. 27] | 5 (0-5 (Death)) | 5 (0-5 (Death)) | 5 (0-5 (Death)) | 4 (6-10 (Severe damages)) | 5 (0-5 (Death)) | 5 (0-5 (Death)) | 4 (6-10 (Severe damages)) | 0 (91-100 (No damages)) | 4 (6-10 (Severe damages)) | 4 (6-10 (Severe damages)) | 5 (0-5 (Death)) | 0 (91-100 (No damages)) | 0 (91-100 (No damages)) | 0 (91-100 (No damages)) | 4 (6-10 (Severe damages)) | 4 (6-10 (Severe damages)) | 5 (0-5 (Death))
6 | 0% | COc1cc(OC)nc(Oc2ccccc2C=NOCCc2ccccc2)n1 [compound 23] | 4 (6-10 (Severe damages)) | 3 (11-40 (Medium damages)) | 3 (11-40 (Medium damages)) | 4 (6-10 (Severe damages)) | 3 (11-40 (Medium damages)) | 3 (11-40 (Medium damages)) | 3 (11-40 (Medium damages)) | 0 (91-100 (No damages)) | 4 (6-10 (Severe damages)) | 5 (0-5 (Death)) | 5 (0-5 (Death)) | 0 (91-100 (No damages)) | 0 (91-100 (No damages)) | 0 (91-100 (No damages)) | 4 (6-10 (Severe damages)) | 5 (0-5 (Death)) | 5 (0-5 (Death))

From patent publication US5053070A, “Pyrimidine derivatives, preparation processes thereof, herbicide containing the same, and herbicidal compositions containing the same along with other active ingredient” (Mitsui Toatsu Chemicals, Incorporated, priority 1988, dated 1991)
